Reference: patent US20150197433A1, “Compositions and methods for treating toilets” (Integrated Chemical Technologies, Inc., priority 2014, published 2015)

System: urease enzyme
Experiment: Testing Glycine Hydroxamate: ammonia odor of treated water loaded with urine and fecal matter
Details: for odor of ammonia: 0.04 grams in 200 ml water with bronopol, citric acid, sodium bicarbonate, sulfamic acid, fragrance, approximately 80° F., after 7 days
Experimental: To each of two flask, 200 ml of distilled water was combined with 0.04 grams of bronopol, 0.04 grams of either acetylhydroxamic acid or 0.04 grams of glycine hydroxamate, 0.10 grams of citric acid, 0.023 grams sodium bicarbonate, 0.027 grams of sulfamic acid, and 0.04 grams of mulberry fragrance. To each sample, 9 ml of urine and 1.5 grams of fecal matter was added and swirled.

Structure (SMILES)	odor of ammonia	performance compared with acetylhydroxamic acid (under test conditions)
NCC(=O)NO [glycine hydroxamate]	no detectable odor of ammonia	comparable to acetylhydroxamic acid
CC(=O)NO [acetylhydroxamic acid, reference compound]	no detectable odor of ammonia	–
